Assays:
Assay type in all cases: cell-based, human
TNF-α = assay: LPS-induced TNF-α production in primary blood macrophages, ELISA of culture supernatants; details: for inhibition of LPS-induced TNF-α protein production: 140 μM B22EES1-8-3 for 24 hr, mean±S.D. of 6 experiments
Method: FIGS. 5A-5B show inhibition of LPS-induced TNF-α production by B22EES1-8-3 and dexamethasone. PBMac were incubated with (A) 140 μM B22EES1-8-3 or (B) 1.3 or 5.1 μM dexamethasone (Dex) for 24 hr prior to the addition of 1 ng/mL and 10 ng/mL LPS for another 24 hr. The culture supernatants were collected and assayed for TNF-α by ELISA. The results shown were the mean values±standard derivation (S.D.) of 6 independent experiments, with cells obtained from different donors. * P<0.05, compared with the corresponding control.
Human peripheral blood monocytic cells (PBMC) were isolated from the buffy coat of healthy donor blood supplied by Hong Kong Red Cross by Ficoll-Paque (Amersham Pharmacia Biotech, Piscataway, N.J.) density gradient centrifugation as described in our previous reports^14,15,34. In brief, the buffy coat was spun at 3000 rotations per min (rpm) for 15 min to separate the blood cells and the plasma. The heat inactivated serum was filtered for future use.
The adherent monocytic cells were detached and seeded onto tissue culture plates and incubated for another 7-14 days in order to differentiate the primary blood monocytic cells to primary blood macrophages (PBMac).
Culture supernatants of the LPS-treated PBMac, with or without B22EES1-8-3 pretreatment, were collected at different time intervals and stored at −70° C. The levels of the secreted TNF-α were measured by ELISA kits specific for the cytokine (R&D system, Minneapolis, Minn.).
To confirm the activities of B8-3 in suppressing TNF-α production, B8-3 was incubated with PBMac for 24 hr prior the addition of LPS at concentrations of 1 ng/mL and 10 ng/mL for 24 hr. The culture supernatants were collected and measured by ELISA for the level of secreted TNF-α.
To further compare the efficiency of B8-3 with existing drugs, dexamethasone, a potent immunosuppressive corticosteroid, was used as a prototype. PBMac were treated with dexamethasone for 24 hr prior to the addition of LPS at concentrations of 1 ng/mL and 10 ng/mL for 24 hr.

p38 MAPK = assay: LPS-induced phosphorylation of p38 MAPK in PBMac, Western blot; details: B22EES1-8-3 140 μM for 24 h, then 10 ng/mL LPS for 15 min
Method: (§1) FIGS. 6A-6C show the effects of B22EES1-8-3 on LPS-induced phosphorylation (phospho-) of ERK1/2 and p38 MAP kinases, and nuclear translocation of NF-κB p65. PBMac were incubated with B22EES1-8-3 (140 μM) for 24 h prior to the addition of 10 ng/mL LPS for an additional 15 min. Cytoplasmic (A, B) and nuclear (C) proteins were harvested for Western Blotting: (A) Cytoplasmic proteins: phospho-ERK1/2 and total ERK1/2. (B) Cytoplasmic proteins: phospho-p38 and total p38 kinase. (C) Nuclear proteins: upper panel, NF-κB p65 and lamin B; lower panel, the intensity of corresponding lanes in the gel photograph of NF-κB p65 was shown. The results shown are representative of at least three independent experiments, with cells obtained from different donors. * P<0.05, compared with the corresponding control. […]
(§2) Whole cell lysate (20 μg) or nuclear protein (2 μg) were separated by sodium dodecyl sulfate polyacrylamide gel electrophoresis (SDS-PAGE) and transferred to nitrocellulose membranes for probing overnight with the respective antibodies specific for the phosphorylated or total form of ERK1/2 and p38 MAPK (Cell Signaling Technology, Beverly, Mass.), NF-κB p65 protein and lamin B (Santa Cruz Biotechnology, Santa Cruz, Calif.). […] In order to quantify the results from the Western blots, the gels were scanned and the intensity of the bands was analyzed by a computer program Quantity One from BioRad. […]

NF-κB p65 = assay: LPS-induced nuclear translocation of NF-κB p65 in PBMac, Western blot of nuclear proteins; details: B22EES1-8-3 140 μM for 24 h, then 10 ng/mL LPS for 15 min, nuclear fraction
Method: as §1, §2

ERK1/2 = assay: LPS-induced phosphorylation of ERK1/2 in PBMac, Western blot; details: B22EES1-8-3 140 μM for 24 h, then 10 ng/mL LPS for 15 min
Method: as §1, §2

| SMILES | inhibition of LPS-induced TNF-α protein production (TNF-α; PBMac, then LPS 1 ng/mL for 24 hr) [%] | inhibition of LPS-induced TNF-α protein production (TNF-α; PBMac, then LPS 10 ng/mL for 24 hr) [%] | amelioration of LPS-upregulated TNF-α production (TNF-α; summary statement, FIG. 5A, LPS concentration not stated) | effect on LPS-induced phosphorylation of p38 MAPK (p38 MAPK) | effect on nuclear translocation of NF-κB p65 (NF-κB p65) | effect on LPS-induced phosphorylation of ERK1/2 (ERK1/2) | inhibition at 1.3 µM (TNF-α; Homo sapiens, Macrophage, PBMac, dexamethasone 1.3 μM for 24 hr, then LPS (1 and 10 ng/mL used) for 24 hr) [%] | inhibition at 5.1 µM (TNF-α; Homo sapiens, Macrophage, PBMac, dexamethasone 5.1 μM for 24 hr, then LPS (1 and 10 ng/mL used) for 24 hr) [%] |
| --- | --- | --- | --- | --- | --- | --- | --- | --- |
| COc1ccc(/C=C/C(=O)OCC(=O)Cc2ccc(O)c(O)c2)cc1O [B8-3] | 47±19 | 58±30 | over 50% | not p38 MAPK induced by LPS was suppressed | reduced the amount of p65NF-kB in the nuclear fraction | suppressed |  |  |
| C[C@@H]1C[C@H]2[C@@H]3CCC4=CC(=O)C=C[C@]4(C)[C@@]3(F)[C@@H](O)C[C@]2(C)[C@@]1(O)C(=O)CO [dexamethasone, reference compound] |  |  |  |  |  |  | 32 ± 7.5 | 25 ± 6.3 |

From patent publication US9174916B2, “Compounds and uses thereof for treating inflammation and modulating immune responses” (PURAPHARM COMPANY LIMITED, priority 2009, dated 2015)
